Laboratory results as given in US20170305965A1, “Fab REGION-BINDING PEPTIDE” (KANEKA CORPORATION, priority 2014, published 2017).

Tests used:
[1] = tested on: IgG-Fab of anti-HER2 monoclonal antibody (Trastuzumab); assay: Biacore 3000 surface plasmon resonance analysis of affinity of SpG variants for immobilized IgG-Fab; format: binding, human; conditions: for KA (affinity constant, KA=kon/koff) / koff / kon: Anti-HER2 antibody - Fab immobilized on CM5, peptide 0.1-0.8 μM, 25° C., pH 7.4, 1:1 binding model; for KA Vs. Wild: ratio of KA to that of GB2*-Wild.1d, Anti-HER2 antibody - Fab
From the text: A humanized monoclonal IgG product as a raw material was fragmented into a Fab fragment and a Fc fragment using papain, and only the Fab fragment was separated and purified. Hereinafter, a method for producing IgG-Fab derived from anti-HER2 monoclonal antibody (generic name: Trastuzumab) is described. In the present disclosure, when other IgG-Fab was used for evaluation, the fragment was basically prepared in a similar method.
Specifically, a humanized monoclonal IgG product (“HERCEPTIN” manufactured by CHUGAI PHARMACEUTICAL CO., LTD., in the case of anti-HER2 monoclonal antibody) was dissolved in a buffer for papain treatment (0.1 M AcOH—AcONa, 2 mM EDTA, 1 mM cysteine, pH 5.5), and agarose on which papain was immobilized (“Papain Agarose from papaya latex” manufactured by SIGMA) was added thereto. The mixture was incubated with stirring by a rotator at 37° C. for about 8 hours. The IgG-Fab was purified by recovering the IgG-Fab as a flow-through fraction in an affinity chromatography using KanCapA column (manufactured by GE Healthcare Bioscience) from the reaction mixture which contained both of a Fab fragment and a Fc fragment and which was separated from the agarose on which papain was immobilized. The obtained crude IgG-Fab solution was subjected to purification by gel filtration chromatography using Superdex 75 10/300 GL column to obtain IgG-Fab solution. In the chromatography, a standard buffer was used for equilibration and separation. Similarly to the above-described Example 1, AKTAprime plus system was used in the chromatography for protein purification.
The affinity of each of the SpG-β2* variant obtained in the above-described Example 1(2) for the IgG-Fab of anti-HER2 monoclonal antibody was evaluated using a biosensor Biacore 3000 (manufactured by GE Healthcare Bioscience) utilizing surface plasmon resonance. In the present Example, the IgG-Fab obtained in the above-described Example 2(1) was immobilized on a sensor tip, and each of the peptide was flown on the tip to detect the interaction between the two. The IgG-Fab was immobilized on a sensor tip CM5 by amine coupling method using N-hydroxysuccinimide (NHS) and N-ethyl-N′-(3-dimethylaminopropyl)carbodiimide hydrochloride (EDC), and ethanolamine was used for blocking. All of the sensor tip and reagents for immobilization was manufactured by GE Healthcare Bioscience. The IgG-Fab solution was diluted to about 10 times using a buffer for immobilization (10 mM AcOH—AcONa, pH 4.5), and the IgG-Fab was immobilized on the sensor tip in accordance with the protocol attached to the Biacore 3000. In addition, a reference cell as negative control was also prepared by activating another flow cell on the tip with EDC/NHS and then immobilizing human serum albumin (manufactured by Wako Pure Chemical Industries, Ltd.). Peptide solutions of each of the SpG-β2* variant having concentrations of […] were prepared using a running buffer (20 mM NaH2PO4—Na2HPO4, 150 mM NaCl, 0.005% P-20, pH 7.4). The peptide solution was added to the sensor tip in a flow rate of 10 μL/min for 4 minutes. Bonding response curves at the time of addition (association phase, for 4 minutes) and after the addition (dissociation phase, for 4 minutes) were sequentially obtained at a measurement temperature of 25° C. After each measurement, the added peptide remaining on the sensor tip was removed by flowing the running buffer for 5 minutes or more; and about 10 mM NaOH was added for wash between the measurements if required.
However, the concentration of a protein solution was adjusted to 0.8 μM, bonding response curves at the time of adding the solution (association phase, for 1 minute) and after the addition (dissociation phase, for 2 minutes) were obtained, and a fitting analysis was carried out using one concentration of the solution.

Fab region of IgG = conditions: cited from earlier work

For “GB2*-Wild.1d: SpG β2 domain variant having excellent thermal stability, SEQ ID NO: 3; comparative example before introducing the mutation (TTYKLVINGKTLKGETTTKAVDAETAERAFRQYATDNGVEGMWTYDPATKTFTVTE; SpG Mutant) [reference compound]”, the “KA (affinity constant, KA=kon/koff)” value [1] was 2.3e+06 M⁻¹, the koff [1] was 0.038 s⁻¹ and the kon [1] was 88000 s/M. For the same substance, the “difference between association constant of the Patent Document 2 variant and association constant shown in Table 2” value ([1]; GB2*-Wild.1d (Table 2) versus variant of Patent Document 2) was “about 1.4 times”.
With “GB2*-T02R/E15Y.1d: two residues variant of SpG-β2* with T02R and E15Y, SEQ ID NO: 27 (TRYKLVINGKTLKGYTTTKAVDAETAERAFRQYATDNGVEGMWTYDPATKTFTVTE; SpG Mutant)” the “binding response (bonding response curve, FIG. 3)” value ([1]; protein solution 0.8 μM, raw bonding response curve compared under the same concentration) was “higher than those of GB2*-Wild.1d and GB2*-T02R.1d”.
For “GB2-Wild.1d: wild β2 domain of Protein G, SEQ ID NO: 2 (TTYKLVINGKTLKGETTTKAVDAETAEKAFKQYANDNGVDGVWTYDDATKTFTVTE; Streptococcus sp. GX7809)”, the Kd (Fab region of IgG; described in Table 1 of Patent Document 2, read-out: dissociation constant) is listed as 2.57 µM and the “association constant (inverse number of the dissociation constant of Patent Document 2)” value (Fab region of IgG; inverse of the dissociation constant in Table 1 of Patent Document 2) is listed as 400000 M⁻¹.
For “GB2*-E15W.1d: SpG-β2* one residue variant with E15W, amino acid sequence SEQ ID NO: 23 (TTYKLVINGKTLKGWTTTKAVDAETAERAFRQYATDNGVEGMWTYDPATKTFTVTE; SpG Mutant)”, the “KA (affinity constant, KA=kon/koff)” value [1] was 1.08e+07 M⁻¹, the koff [1] was 0.011 s⁻¹ and the kon [1] was 119000 s/M. For the same substance, the “KA Vs. Wild” value [1] was 4.8.
With “GB2*-T02R.1d: SpG-β2* one residue variant with T02R, amino acid sequence SEQ ID NO: 19 (TRYKLVINGKTLKGETTTKAVDAETAERAFRQYATDNGVEGMWTYDPATKTFTVTE; SpG Mutant)” the “KA (affinity constant, KA=kon/koff)” value [1] was 9.8e+06 M⁻¹, the koff [1] was 0.01 s⁻¹ and the kon [1] was 98000 s/M. The “KA Vs. Wild” value [1] was 4.3.
For “GB2*-E15Y.1d: SpG-β2* one residue variant with E15Y, amino acid sequence SEQ ID NO: 21 (TTYKLVINGKTLKGYTTTKAVDAETAERAFRQYATDNGVEGMWTYDPATKTFTVTE; SpG Mutant)”, the “KA (affinity constant, KA=kon/koff)” value [1] was 9.3e+06 M⁻¹, the koff [1] was 0.01 s⁻¹ and the kon [1] was 92000 s/M. For the same substance, the “KA Vs. Wild” value [1] was 4.0.
With “GB2-E15W.1d: E15W mutation introduced into wild SpG-β2 domain, SEQ ID NO: 25 (TTYKLVINGKTLKGWTTTKAVDAETAEKAFKQYANDNGVDGVWTYDDATKTFTVTE; SpG Mutant)” the “association constant KA” value ([1]; fitting analysis using one concentration, 0.8 μM, association phase 1 minute, dissociation phase 2 minutes) was 1.6e+06 M⁻¹.
